Data as given in ChEMBL document CHEMBL2375272, “Identification of RC-33 as a potent and selective σ1 receptor agonist potentiating NGF-induced neurite outgrowth in PC12 cells. Part 2: g-scale synthesis, physicochemical characterization and in vitro metabolic stability” (Bioorg Med Chem, 2013).

Assays:
[1] = Half life in human liver S9 fraction by UPLC-UV-PAD method in presence of NADPH; type: ADME, subcellular
[2] = Half life in rat liver S9 fraction by UPLC-UV-PAD method in presence of NADPH; type: ADME, subcellular
[3] = Drug metabolism in human liver S9 fraction assessed as oxidative metabolism after 4 hrs by UPLC-UV-PAD method in presence of NADPH; type: ADME, subcellular; conditions: read-out: Drug metabolism
[4] = Drug metabolism in rat liver S9 fraction assessed as oxidative metabolism after 4 hrs by UPLC-UV-PAD method in presence of NADPH; type: ADME, subcellular; conditions: read-out: Drug metabolism
[5] = Drug metabolism in human liver S9 fraction assessed as non-oxidative metabolism after 4 hrs by UPLC-UV-PAD method; type: ADME, subcellular; conditions: read-out: Drug metabolism
[6] = Drug metabolism in rat liver S9 fraction assessed as non-oxidative metabolism after 4 hrs by UPLC-UV-PAD method; type: ADME, subcellular; conditions: read-out: Drug metabolism
[7] = Drug metabolism in dog plasma after 4 hrs by UPLC-UV/PAD method; type: ADME, cell-free, Canis lupus familiaris; conditions: read-out: Drug metabolism
[8] = Drug metabolism in human plasma after 4 hrs by UPLC-UV/PAD method; type: ADME, cell-free; conditions: read-out: Drug metabolism
[9] = Drug metabolism in rat plasma after 4 hrs by UPLC-UV/PAD method; type: ADME, cell-free; conditions: read-out: Drug metabolism
Blood [10] = test: Metabolic stability in rat blood after 4 hrs by UPLC-UV/PAD method; type: ADME, tissue-based
Blood [11] = test: Metabolic stability in mouse blood after 4 hrs by UPLC-UV/PAD method; type: ADME, tissue-based
[12] = Solubility of the compound in physiological solution by UV spectrophotometric analysis; type: physicochemical
[13] = Solubility of the compound in phosphate buffer at pH 7.4 by UV spectrophotometric analysis; type: physicochemical
[14] = Solubility of the compound in water by UV spectrophotometric analysis; type: physicochemical

half-life [1]: 2.17 h | half-life [2]: 1.89 h | metabolised at 4 h [3]: 69% | metabolised at 4 h [4]: 65% | metabolised at 4 h [5]: 30% | metabolised at 4 h [6]: 30% | metabolised at 4 h [7]: 25% | metabolised at 4 h [8]: 6% | metabolised at 4 h [9]: 6% | Stability (Blood [10]): Stable | Stability (Blood [11]): Stable | solubility [12]: 8 mg/mL | solubility [13]: 32 mg/mL | solubility [14]: 33 mg/mL
Structure (SMILES): CC(CCN1CCCCC1)c1ccc(-c2ccccc2)cc1.Cl (racemic)
